Values quoted from earlier work as cited in patent publication US11993576B2, “N-benzyl-N-arylsulfonamide derivative and preparation and use thereof” (Hangzhou Yirui Pharmaceutical Technology Co., Ltd, priority 2019, dated 2024).

Tests used:
[1] = system: Th2 TEM cells with highly expressed Kv1.3; details: ovalbumin-induced asthma, rat; cited from earlier work
EAE = details: in vivo; cited from earlier work
[2] = system: rat model of autoimmune glomerular basal membrane nephritis; details: intraperitoneal injection; cited from earlier work

Compound: SHK-186
- proliferation of Th2 TEM cells and production of cytokines [1]: can effectively inhibit proliferation of Th2 TEM cells with highly expressed Kv1.3 and production of cytokines
- inductive occurrence of EAE (EAE): can resist inductive occurrence of EAE
- production of IFN-γ and IL-17 (EAE): inhibit production of IFN-γ and IL-17

Compound: O=c1ccc2c(OCCCCc3ccccc3)c3ccoc3cc2o1 [Psora-4]
- proteinuria and crescentic glomeruli [2]: can significantly decrease proteinuria and crescentic glomeruli
